Assays:
[1] = Compound release from multilayer silk coatings on glass slides in PBS; assay type: physicochemical; conditions: room temperature
Description: (§1) This process was repeated according to the designated architectures in which the outmost layer was always silk layer. In this work, two different loading modalities were used in the release study for each compound, each with two different rinsing methods. UV-Vis absorbance spectra and a research quartz crystal microbalance (RQCM) were used for verifying the deposition.
The compound release from the multilayer coatings on glass microscope slides (25×75 mm on both sides) was investigated by incubating the slides in 5 ml PBS buffer solutions at room temperature with gentle shaking (60 rpm). At preset time intervals, 2 ml supernatant was sampled and 2 ml fresh PBS solution was then added to replenish the sample that was removed in order to maintain a constant volume. The supernatant was analyzed for the amount of released model compound using UV-vis spectroscopy for optical densities at a specific wavelength for each compound (562 nm for Rhodamine B, 609 nm for Even Blue, and 358 nm for Azoalbumin) and compared to a standard curve generated for each compound. The amount of released compound in each sample was summed with the amounts at each previous time point and divided by the total amount to obtain cumulative release value. Experiments were run in triplicates (n=3). Data in the graphs represent the average±standard deviation.

[2] = Real-time adsorption of model compounds monitored by RQCM; assay type: physicochemical; conditions: in situ RQCM; for adsorption (saturation) that took place within the first 2 min: silk pre-coated gold electrode
Description: as §1
The real-time adsorption of model compounds on silk pre-coated gold electrode surface was monitored using research quartz crystal microbalance (RQCM).

initial burst, compared with Rhodamine B [1]	adsorption (saturation) that took place within the first 2 min [2] [%]	adsorption on silk coating, compared with Even Blue [2]	Compound
no noticeable difference	~92	–	Cc1cc(-c2ccc(/N=N/c3ccc4c(S(=O)(=O)[O-])cc(S(=O)(=O)[O-])c(N)c4c3O)c(C)c2)ccc1/N=N/c1ccc2c(S(=O)(=O)[O-])cc(S(=O)(=O)[O-])c(N)c2c1O.[Na+].[Na+].[Na+].[Na+] [Even Blue]
–	~92	higher adsorption	CCN(CC)c1ccc2c(-c3ccccc3C(=O)O)c3ccc(=[N+](CC)CC)cc-3oc2c1 [Rhodamine B]

Compound	initial burst, compared with Rhodamine B [1]	adsorption (saturation) that took place within the first 2 min [2] [%]	adsorption on silk coating, compared with Even Blue [2]
Azoalbumin: model molecule representing therapeutically relevant proteins	–	~82	–

From patent US9731052B2, “Methods for stepwise deposition of silk fibroin coatings” (TRUSTEES OF TUFTS COLLEGE, priority 2005, dated 2017)
